PubChem BioAssay AID1219 (NMMLSC, 2008)
Results filed as inconclusive are left out. Active and inactive are the calls of the source.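 How the source made its calls: active means score of 100, fluorescent reporter fully moved to nucleus as with estrogen, or estrogen effect fully blocked; inactive means score of 0 or 50, partial or no effect.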

Molecular target: G-protein coupled estrogen receptor 1 (Homo sapiens) (UniProt Q99527)
Assay: GPR30 agonism via PIP3 reporter nuclear relocation, confirmation, orthogonal assay for GPR30 ligand project, imaging, Cos7 GPR30-GFP, PH-RFP, Akt PH domain (AID 1219)
Details: at 10 µM, hits give high values

Row | SMILES | translocation response score
1 | COc1ccccc1N1CCN(C(=O)c2ccc3nc(-c4ccco4)c(-c4ccco4)nc3c2)CC1 | 100
2 | COc1cccc(NS(=O)(=O)c2ccc3c(c2)C2C=CCC2C(c2ccc(C(=O)O)cc2)N3)c1 (configuration not stated) | 50 (inactive)
3 | Nc1ncnc2c1ncn2C1CCC(CO)C(O)C1 (configuration not stated) | 50 (inactive)
4 | Cc1cc(C)c2c(c1)[C@@H]1C=CC[C@@H]1[C@H](c1ccc(S(=O)(=O)N3CCOCC3)cc1)N2 | 100
5 | O=C(O)c1ccc2c(c1)C1C(Cl)C(Sc3ccccc3[N+](=O)[O-])CC1C(c1cccc([N+](=O)[O-])c1)N2 (configuration not stated) | 0 (inactive)
6 | Cc1cc(-c2nn3c(-c4ccccc4)nnc3s2)c2ccccc2n1 | 100
7 | O=C(O)c1cc(Cl)c2c(c1)[C@@H]1C=CC[C@@H]1[C@H](c1ccc(S(=O)(=O)N3CCOCC3)cc1)N2 | 50 (inactive)
